Laboratory results from US20240261243A1, “NITRIC OXIDE DONORS, COMPOSITIONS, AND METHODS OF USE” (priority 2020, published 2024).

Test: NO storage and release measurement (chemiluminescence nitric oxide analyzer)
Format: physicochemical
Protocol: N-diazeniumdiolates NO scaffolds are pH-triggered NO-release donors. Reacting with proton in the physiological condition (e.g., 37° C., pH 7.4), 1 mole of N-diazeniumdiolate regenerates 1 mole of the parent secondary amine compounds and two moles of NO radicals. The real-time detection of NO was performed by using a chemiluminescence-based nitric oxide analyzer (NOA). The total NO storage and dissociation kinetics of water-soluble NO Donors were measured in physiological condition (pH 7.40, 37° C.). The resulting NO-release parameters (e.g., total NO storage, half-life of NO release, maximum flux, and conversion efficiency) were evaluated for suitability as a pharmaceutical product.
Transfer the solution into the high-pressure vessel and purge the headspace with nitrogen. Mix the solution and set nitric oxide pressure to 25 bar (temp 20° C.). Allow the reaction to run for minimum of 3 days. Stop the reaction by venting the NO. Precipitate the reaction product in acetone (10:1 acetone:reaction mixture). Filter the precipitate and vacuum dry.
We sought to determine whether an NO donor and gallium nitrate have antimicrobial synergy against a lab strain of P. aeruginosa (PAK). The Checkerboard assay (described herein) was used with a hepta-substituted cyclodextrin-based NO donor (hereinafter referred to as BIOC76) having approximately ˜4.7 μmol NO/mg dry powder.

With `O=NN(O)N(CCO)CC1OC2OC3C(CN(CCO)N(O)N=O)OC(OC4C(CN(CCO)N(O)N=O)OC(OC5C(CN(CCO)N(O)N=O)OC(OC6C(CN(CCO)N(O)N=O)OC(OC7C(CN(CCO)N(O)N=O)OC(OC8C(CN(CCO)N(O)N=O)OC(OC1C(O)C2O)C(O)C8O)C(O)C7O)C(O)C6O)C(O)C5O)C(O)C4O)C(O)C3O` (stereo not shown) [BIOC76] the NO content was ~4.7 μmol NO/mg dry powder.
